Converted amounts (≈) assume the structure as drawn. “Also recorded” adds a separate entry of the source.
Key:
[1] = cited from earlier work
[2] = system: LNCaP(PSMA+) cells; test: Cell uptake by confocal laser scanning microscopy, LNCaP; format: cell-based; conditions: 1.5 μM Dox, 2 hours
Procedure: (§1) Prostrate cancer cell lines LNCaP(PSMA+) and PC3 (PSMA−) (5*10^3 cells/mL) were grown in chamber slides in RPMI 1640 media with 10% fetal bovine serum for 24 hours to attain 70% confluence. Before incubation with complex, cells were pre-incubated with OPTIMEM media for 30 minutes, followed by incubation with physical complex of 1.0:1.1 molar ratio of Dox:aptamer with a doxorubicin concentration of 1.5 μM for 2 hours, the cells were washed with PBS twice, fixed with 3.5% HCHO for 10 minutes, washed, mounted with Vector mounting media and cover slipped. Fluorescence images were obtained (Carl Zeiss LSM 510, Ar laser 488, long pass filter 560,63× water lens.)

[3] = system: PC3 cells; test: Flow cytometry of cellular uptake, PC3; format: cell-based; conditions: PC3 compared to LNCaP; 1.5 μM
Procedure: (§2) Cellular uptake of the complex was confirmed using flow cytometry (EPICS XL Flow cytometry systems, Beckman Coulter, Inc). Briefly, 5×10^4 cells were seeded onto 12 well plates (n=4) for 24 hours followed by incubation for 2 hours with the complex solution (1.0:1.1 mole ratio of Dox:aptamer) such that final Dox concentration was 1.5 μM. Cells were washed with PBS twice, trypsinized, centrifuged at 1000 rpm for 3 minutes and resuspended in PBS for FACS analysis. Data were processed with EXPO 32 software.

[4] = system: LNCaP cells; test: Flow cytometry of cellular uptake, LNCaP; format: cell-based; conditions: LNCaP compared to PC3; 1.5 μM
Procedure: as §2

[5] = molecular target: A10 PSMA aptamer; test: Fluorescence quenching titration of Dox with the A10 PSMA aptamer (Hill plot); format: binding; conditions: FIG. 2 inset
Procedure: A complex comprising the A10 PSMA aptamer (RNA-Tec, Belgium) and doxorubicin (Dox) was generated through the stepwise addition of increasing molar ratio of aptamer to a fixed concentration of doxorubicin (3 μM) in the presence of 0.1 M sodium acetate, 0.05 M sodium chloride, and 0.01 M magnesium chloride. The fluorescence of Dox was measured at 35 minutes by exciting the solution at 480 nm and recording the emission in the interval of 500 nm-720 nm (1.5 mm slit) on a Shimadzu RF-PC100 spectrofluorophotometer.

[6] = system: PC3 cells; conditions: MTT, QD 100 nM, Dox 5 μM
Procedure: (§3) The prostate LNCaP and PC3 cell lines were grown in 24-well plates in RPMI-1640 and Ham's F-12K medium, respectively, both supplemented with 100 units/ml aqueous penicillin G, 100 μg/ml streptomycin, and 10% FBS (fetal bovine serum) at concentrations to allow 70% confluence in 24 hours (i.e., 40,000 cells/cm^2). […] Cells were incubated with the conjugates for 3 hours at 37° C., washed two times with PBS (1 ml per well), and incubated in fresh growth media for a total of 72 hours. Cell viability was assessed colorimetrically with the MTT reagent (ATCC) following the standard protocol provided by the manufacturer. The absorbance was read with a microplate reader at 570 nm.

[7] = system: LNCaP cells; conditions: MTT, QD 100 nM, Dox 5 μM
Procedure: as §3

[8] = system: PC3 (PSMA−) cells; test: Cell uptake by confocal laser scanning microscopy, PC3; format: cell-based; conditions: 1.5 μM Dox, 2 hours
Procedure: as §1

[9] = system: LNCaP cells; conditions: cited from earlier work
[10] = system: PC3 cells; conditions: cited from earlier work

## CC(=O)O[C@@]12CO[C@@H]1C[C@H](O)[C@@]1(C)C(=O)[C@H](O)C3=C(C)[C@@H](OC(=O)[C@H](O)[C@@H](NC(=O)OC(C)(C)C)c4ccccc4)C[C@@](O)([C@@H](OC(=O)c4ccccc4)[C@H]21)C3(C)C [Dtxl, docetaxel]
[1]
  water solubility: 0.025 µg/mL (≈ 0.0309 µM)

## COc1cccc2c1C(=O)c1c(O)c3c(c(O)c1C2=O)C[C@@](O)(C(=O)CO)C[C@@H]3O[C@H]1C[C@H](N)[C@H](O)[C@H](C)O1 [free Dox, doxorubicin]
[2]
  uptake / staining by confocal microscopy: readily diffuses through the plasma membrane; also recorded: almost exclusively stains nuclei
[3]
  staining by flow cytometry: near-identical staining
[4]
  staining by flow cytometry: near-identical staining
[5]
  Kd expressed as equiv of the aptamer: 0.52 equiv
[6]
  cytotoxicity: equipotent
[7]
  cytotoxicity: equipotent
[8]
  uptake / staining by confocal microscopy: readily diffuses through the plasma membrane

B1: free aptamer: A10 RNA aptamer that binds to the PSMA protein on the surface of prostate cancer cells (Lupold et al., 2002) (nucleic acid)
chain: GGGAGGACGAUGCGGAUCAGCCAUGUUUACGUCACUCCUUGUCAAUCCUCAUCGGCAGACGACUCGCCCGA
modifications: chemistry not given here
[9]
  cytotoxicity, previously reported: no cytotoxicity
[10]
  cytotoxicity, previously reported: no cytotoxicity

From patent publication US20110052697A1, “Aptamer-Directed Drug Delivery” (GWANGJU INSTITUTE OF SCIENCE & TECHNOLOGY, priority 2006, published 2011)
